Source: EP2179993A1, “Sulfoxide substituted aniline pyrimidine derivatives as CDK inhibitors, their manufacture and use as medicine” (Bayer Schering Pharma Aktiengesellschaft, priority 2008, dated 2010)

Tests used:
[1] = molecular target: T1, CDK1/CycB (Homo sapiens, UniProt P06493); assay: CDK1/CycB kinase assay (33P-ATP incorporation into histone IIIS, filter strip scintillation); format: biochemical; conditions: recombinant CDK1- and CycB-GST fusion proteins; 0,5 µM ATP; 10 min at 22°C; substrate Histon IIIS; read-out: CDK1/CycB (Assay 1) Konzentration der halbmaximalen Inhibition der Enzymaktivität, IC50
T1 construct: GST; purchased ProQinase GmbH, Freiburg; host or cells: baculovirus-infected Sf9 insect cells
Experimental: Assay 1: CDK1/CycB Kinase Assay
Rekombinante CDK1- und CycB-GST-Fusionsproteine, gereinigt aus Bakulovirusinfizierten Insektenzellen (Sf9), wurden von ProQinase GmbH, Freiburg, gekauft. Das als Kinase-Substrat verwendet Histon IIIS ist über die Fa. Sigma käuflich zu erwerben.
(§1) CDK1/CycB (200 ng/Messpunkt) wurde für 10 min bei 22°C in Anwesenheit verschiedener Konzentrationen an Testsubstanzen (0 µM, sowie innerhalb des Bereiches 0,001 - 10 µM) in Assaypuffer [50 mM Tris/HCl pH8,0; 10 mM MgCl2; 0,1 mM Na ortho-Vanadat; 1,0 mM Dithiothreitol; 0,5 µM Adenosintrisphosphat (ATP); 10 µg/Messpunkt Histon IIIS; 0,2 µCi/Messpunkt ^33P-gamma ATP; 0,05% NP40; 1,25% Dimethylsulfoxid] inkubiert. Die Reaktion wurde durch Zugabe von EDTA-Lösung (250 mM; pH8,0; 15 µl/Messpunkt) gestoppt.
(§2) Von jedem Reaktionsansatz wurden 15 µl auf P30 Filterstreifen (Fa. Wallac) aufgetragen, und nicht-eingebautes ^33P-ATP wurde durch dreimaliges Waschen der Filterstreifen für je 10 min in 0,5%iger Phosphorsäure entfernt. Nach dem Trocknen der Filterstreifen für 1 Stunde bei 70°C wurden die Filterstreifen mit Szintillator-Streifen (MeltiLex™ A, Fa. Wallac) bedeckt und für 1 Stunde bei 90°C eingebrannt. Die Menge an eingebautem ^33P (Substratphosphorylierung) wurde durch Szintillationsmessung in einem Gamma-Strahlungsmessgerät (Wallac) bestimmt. […]

[2] = molecular target: T2, CDK2/CycE (Homo sapiens, UniProt P24941); assay: CDK2/CycE kinase assay (33P-ATP incorporation into histone IIIS, filter strip scintillation); format: biochemical; conditions: recombinant CDK2- and CycE-GST fusion proteins; 0,5 µM ATP; 10 min at 22°C; substrate Histon IIIS; read-out: CDK2/CycE (Assay 2) Konzentration der halbmaximalen Inhibition der Enzymaktivität, IC50
T2 construct: GST; purchased ProQinase GmbH, Freiburg; host or cells: baculovirus-infected Sf9 insect cells
Experimental: Assay 2: CDK2/CycE Kinase Assay
Rekombinante CDK2- und CycE-GST-Fusionsproteine, gereinigt aus Bakulovirusinfizierten Insektenzellen (Sf9), wurden von ProQinase GmbH, Freiburg, gekauft. Histon IIIS, das als Kinase-Substrat verwendet wurde, wurde bei der Fa. Sigma gekauft.
as §1, with “CDK2/CycE (50” for “CDK1/CycB (200”
as §2, with “(MeItiLex™” for “(MeltiLex™”

T1 sequence (P06493 whole entry, the tested form may be a part): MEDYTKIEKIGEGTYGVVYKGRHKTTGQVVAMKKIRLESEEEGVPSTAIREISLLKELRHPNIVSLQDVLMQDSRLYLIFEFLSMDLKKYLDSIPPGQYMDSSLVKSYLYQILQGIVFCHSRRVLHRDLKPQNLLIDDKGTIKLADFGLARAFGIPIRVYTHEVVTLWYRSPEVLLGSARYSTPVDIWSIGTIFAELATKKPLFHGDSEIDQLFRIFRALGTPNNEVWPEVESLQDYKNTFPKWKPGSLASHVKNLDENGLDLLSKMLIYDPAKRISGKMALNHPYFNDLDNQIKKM
T1 sequence (P14635 whole entry partner, the tested form may be a part): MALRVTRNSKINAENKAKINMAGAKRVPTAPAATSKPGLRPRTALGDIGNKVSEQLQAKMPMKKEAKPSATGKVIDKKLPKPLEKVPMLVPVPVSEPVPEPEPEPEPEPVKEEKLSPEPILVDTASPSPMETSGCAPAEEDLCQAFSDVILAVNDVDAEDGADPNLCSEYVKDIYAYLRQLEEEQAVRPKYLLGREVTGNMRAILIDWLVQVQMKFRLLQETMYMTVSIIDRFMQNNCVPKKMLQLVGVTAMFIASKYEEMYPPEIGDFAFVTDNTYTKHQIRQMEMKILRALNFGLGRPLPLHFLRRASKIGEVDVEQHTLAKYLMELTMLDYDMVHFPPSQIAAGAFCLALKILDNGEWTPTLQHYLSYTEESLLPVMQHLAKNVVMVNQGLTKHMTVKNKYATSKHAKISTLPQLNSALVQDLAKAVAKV

| IC50 [1] | IC50 [2] | Compound |
| --- | --- | --- |
| 30 nM | 12 nM | C[C@@H](Oc1nc(Nc2ccc([S+](C)[O-])cc2)ncc1C(F)(F)F)C(C)(C)O (stereo partly drawn) [Beispiel 2, (R)-3-[2-(4-Methansulfinyl-phenylamino)-5-trifluormethyl-pyrimidin-4-yloxy]-2-methyl-butan-2-ol] |
| 7 nM | 5 nM | C[C@@H](O)[C@@H](C)Oc1nc(Nc2ccc([S+](C)[O-])cc2)ncc1C(F)(F)F (stereo partly drawn) [Beispiel 1, (2R,3R)-3-[2-(4-Methansulfinyl-phenylamino)-5-trifluormethyl-pyrimidin-4-yloxy]-butan-2-ol] |
